Test results as given in US7514438B2, “Melanin concentrating hormone receptor antagonist” (Amgen, Inc., priority 2003, dated 2009).
Read-outs that look alike come from different tables or passages of the source.

What was measured:
[1] = biological target: T1, rat MCH 1 receptor (rMCH1R) (Rattus norvegicus, UniProt P97639); experiment: 125I-MCH ligand binding assay, rMCH; settings: HEK 293 membranes, 0.2 nM 125I native-MCH, read-out: IC50 in the rMCH binding assay
T1 construct: expressed in transfected cells; host or cells: HEK 293 (membranes)
T1 sequence (P97639 whole entry): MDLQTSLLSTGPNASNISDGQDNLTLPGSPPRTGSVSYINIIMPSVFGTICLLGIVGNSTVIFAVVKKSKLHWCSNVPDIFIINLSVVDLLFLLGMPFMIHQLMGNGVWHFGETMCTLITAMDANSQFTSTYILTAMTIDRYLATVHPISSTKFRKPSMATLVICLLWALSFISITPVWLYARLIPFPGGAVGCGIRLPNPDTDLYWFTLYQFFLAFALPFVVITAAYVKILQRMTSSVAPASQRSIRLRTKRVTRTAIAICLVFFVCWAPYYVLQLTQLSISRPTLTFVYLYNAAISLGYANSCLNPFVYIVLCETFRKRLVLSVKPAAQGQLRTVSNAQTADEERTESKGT
Procedure, shortened: (§1)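 HEK293 membranes expressing rat or human MCH1R (100 µg tissue) were incubated for 90 min at 30 °C with 0.2 nM 125I-native-MCH and test compound in HEPES/MgCl2/BSA buffer with protease inhibitors, pH 7.4. Non-specific binding used 1 µM cold MCH. Filter-bound radioactivity gave IC50 by nonlinear regression.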

human MCH receptor = biological target: T2, human MCH receptor (Homo sapiens, UniProt Q99705); experiment: hMCH FLIPR calcium mobilization assay; format: cell-based; settings: read-out: Ki in the hMCH FLIPR assay
T2 construct: expressed in transfected cells
T2 sequence (Q99705 whole entry): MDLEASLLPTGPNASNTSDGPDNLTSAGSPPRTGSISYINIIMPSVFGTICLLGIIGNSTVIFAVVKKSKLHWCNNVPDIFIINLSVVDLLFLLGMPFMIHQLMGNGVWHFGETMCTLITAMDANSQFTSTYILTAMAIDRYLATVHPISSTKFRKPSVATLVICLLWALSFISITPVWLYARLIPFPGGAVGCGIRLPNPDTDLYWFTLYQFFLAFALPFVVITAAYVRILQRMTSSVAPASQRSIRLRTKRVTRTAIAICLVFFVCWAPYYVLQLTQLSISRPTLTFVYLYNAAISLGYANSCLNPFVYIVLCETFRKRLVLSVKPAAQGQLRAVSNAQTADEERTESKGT

[2] = biological target: T3, human MCH 1 receptor (hMCH1R) (Homo sapiens, UniProt Q99705); experiment: 125I-MCH ligand binding assay, hMCH; settings: HEK 293 membranes, 0.2 nM 125I native-MCH, read-out: IC50 in the hMCH binding assay
T3 construct: expressed in transfected cells; host or cells: HEK 293 (membranes)
T3 sequence (Q99705 whole entry): as above
Procedure, shortened: as §1

rat MCH1 receptor [3] = biological target: T4, rat MCH1 receptor (Rattus norvegicus, UniProt P97639); experiment: rMCH FLIPR calcium mobilization assay (CHOK1-Gqi cells); format: cell-based; parameters: expressed in transfected cells; host or cells: CHOK1-Gqi; settings: CHOK1-Gqi cells, rat MCH1 receptor, read-out: Ki in the rMCH FLIPR assay
T4 sequence (P97639 whole entry): as the sequence (P97639 whole entry) above
Protocol: Pharmacological analyses were conducted using either a HT-PS100 device (Axiom Biotechnologies, San Diego, Calif.), which provides high-resolution dose-response fluorometric measurements of [Ca^++]i mobilization, or using a FLIPR® device (Molecular Devices, Sunnyvale, Calif.).
Materials: Pharmacological analysis was conducted using a FLIPR® device (Molecular Devices, Sunnyvale, Calif.). CHOK1-Gqi cells were stably transfected with the rat MCH1 receptor and maintained under G418 antibiotic pressure. FLIPR® assay buffer consisted of phenol red-free DMEM+2.5 mM probenecid. […]. Test compounds were prepared as 10 mM stocks in 100% DMSO and diluted to a top end working concentration of 10 μM in 96 well black, flat bottom, collagen-I coated plates (Becton Dickinson, Bedford, Mass.).
Methods: CHOK1-Gqi cells stably expressing MCH1R were maintained in Dulbeco's modified Eagle's medium (GIBCO/Life Technologies, Rockville, Md.) supplemented with 2 mM glutamine and 10% dialyzed fetal bovine serum (HyCLone, Logan, Utah) at 37° C., 5% CO2. Cells were harvested by 10′ treatment with Versene (GIBCO/Life Technologies) followed by trituration, washing twice with cold (4° C.) hybridoma medium (Serum/Protein free, with L-glutamine, sodium bicarbonate, MOPS buffer) (Sigma-Aldrich Corp, St. Louis, Mo.) and replated onto 96 well black, flat bottom, collagen-I coated plates to a density of 10,000 cells/well. The cells were then loaded with the fluorescent calcium indicator Fura-2 (Molecular Probes, Eugene, Oreg.) at 1.6 μM for 60′ at room temperature. The loaded cells were then washed twice with 90 μl/well of wash buffer (1×HBSS, 20 mM HEPES, 2.5 mM probenecid).
Receptor-stimulated intracellular calcium responses were detected using FLIPR® by monitoring increases in the Fura-2 fluorescence response.
Test compounds were screened for MCH1R activity in the FLIPR® for both agonist and antagonist action. Agonist mode challenges were conducted at a maximum gradient concentration of 1 μM. Antagonist activity was tested by 10 min pre-incubation of cells at a compound concentration of defined to be 300× the EC50 of MCH (typically 1 μM), with subsequent introduction of MCH at a concentration 5-fold of EC50 as determined in preliminary experiments. […].
Several fixed concentrations of antagonist compounds were prepared in 10-fold increments, and presented to the cells in a gradient of increasing MCH concentration. Values for compound pA2 were calculated by linear regression of MCH EC50s as a function of antagonist concentration.

rat MCH1 receptor [4] = biological target: T4, rat MCH1 receptor; experiment: HT-PS100 calcium mobilization functional assay; format: cell-based; parameters: expressed in transfected cells; settings: HEK 293 cells stably transfected with rat MCH1 receptor; 100 nM or less list; read-out: Ki in the HT-PS100 assay

Compound | IC50 ([1]; 100 μM or less list) | Ki (human MCH receptor; 100 nM or less list) | Ki (human MCH receptor; 100 μM or less list) | IC50 ([2]; 100 μM or less list) | Ki (rat MCH1 receptor [3]; 100 μM or less list) | Ki (rat MCH1 receptor [4]) | IC50 ([1]; 100 nM or less list) | IC50 ([2]; 100 nM or less list) | Ki (rat MCH1 receptor [3]; 100 nM or less list)
Cc1cccc(C)c1-n1nnnc1[C@H](c1cccs1)N1CCN(C/C=C/c2ccccc2)CC1 (racemic) [Compound 53, 1-{[1-(2,6-dimethyiphenyl)-1H-tetrazol-5-yl]thiophen-2-ylmethyl}-4-(3-phenylallyl)piperazine] | ≤ 100 µM | ≤ 0.1 µM | ≤ 100 µM | ≤ 100 µM | ≤ 100 µM | ≤ 0.1 µM |  |  | 
Cc1cccc(C)c1-n1nnnc1[C@H](c1ccc(OCc2ccccc2)cc1)N1CCN(C/C=C/c2ccccc2)CC1 (racemic) [Compound 70, 1-{(4-benzyloxyphenyl)-[1-(2,6-dimethylphenyl)-1H-tetrazol-5-yl]methyl}-4-(3-phenylallyl)piperazine] | ≤ 100 µM | ≤ 0.1 µM | ≤ 100 µM | ≤ 100 µM | ≤ 100 µM | ≤ 0.1 µM | ≤ 0.1 µM | ≤ 0.1 µM | 
COc1cccc([C@@H](c2nnnn2-c2c(C)cccc2C)N2CCN(C/C=C/c3ccccc3)CC2)c1 (racemic) [Compound 77, 1-[[1-(2,6-dimethylphenyl)-1H-tetrazol-5-yl]-(3-methoxyphenyl)methyl]-4-(3-phenylallyl)piperazine] | ≤ 100 µM |  | ≤ 100 µM | ≤ 100 µM | ≤ 100 µM | ≤ 0.1 µM |  | ≤ 0.1 µM | 
Cc1cccc(C)c1-n1nnnc1[C@H](c1ccc2ccccc2c1)N1CCN(C/C=C/c2ccccc2)CC1 (racemic) [Compound 62, 1-{[1-(2,6-dimethylphenyl)-1H-tetrazol-5-yl]naphthalen-2-ylmethyl}-4-(3-phenylallyl)piperazine] | ≤ 100 µM |  | ≤ 100 µM | ≤ 100 µM | ≤ 100 µM | ≤ 0.1 µM |  | ≤ 0.1 µM | 
Cc1ccc([C@@H](c2nnnn2-c2c(C)cccc2C)N2CCN(C/C=C/c3ccccc3)CC2)cc1 (racemic) [Compound 55, 1-{[1-(2,6-dimethyiphenyl)-1H-tetrazol-5-yl]-p-tolylmethyl]-4-(3-phenylallyl)piperazine] | ≤ 100 µM | ≤ 0.1 µM | ≤ 100 µM | ≤ 100 µM | ≤ 100 µM | ≤ 0.1 µM |  | ≤ 0.1 µM | 
Cc1cccc(C)c1-n1nnnc1[C@H](c1cccc(C(F)(F)F)c1)N1CCN(C/C=C/c2ccccc2)CC1 (racemic) [Compound 56, 1-[[1-(2,6-dimethyiphenyl)-1H-tetrazol-5-yl]-(3-trifluoromethyiphenyl)methyl]-4-(3-phenylallyl)piperazine] | ≤ 100 µM | ≤ 0.1 µM | ≤ 100 µM | ≤ 100 µM | ≤ 100 µM | ≤ 0.1 µM | ≤ 0.1 µM | ≤ 0.1 µM | ≤ 0.1 µM
Cc1cccc([C@@H](c2nnnn2-c2c(C)cccc2C)N2CCN(C/C=C/c3ccccc3)CC2)c1 (racemic) [Compound 61, 1-{[1-(2,6-dimethylphenyl)-1H-tetrazol-5-yl]-m-tolylmethyl}-4-(3-phenylallyl) piperazine] | ≤ 100 µM |  | ≤ 100 µM | ≤ 100 µM | ≤ 100 µM | ≤ 0.1 µM |  |  | 
Cc1cccc(C)c1-n1nnnc1[C@H](c1ccc2c(c1)OCO2)N1CCN(C/C=C/c2ccccc2)CC1 (racemic) [Compound 83, 1-{benzo[1,3]dioxol-5-yl-[1-(2,6-dimethylphenyl)-1H-tetrazol-5-yl]methyl}-4-(3-phenylallyl)piperazine] | ≤ 100 µM |  | ≤ 100 µM | ≤ 100 µM | ≤ 100 µM | ≤ 0.1 µM |  |  | 
Cc1cccc(C)c1-n1nnnc1[C@H](c1ccc(-n2ccnc2)cc1)N1CCN(C/C=C/c2ccccc2)CC1 (racemic) [Compound 78, 1-[[1-(2,6-dimethylphenyl)-1H-tetrazol-5-yl]-(4-imidazol-1-ylphenyl)methyl]-4-(3-phenylallyl)piperazine] | ≤ 100 µM |  | ≤ 100 µM | ≤ 100 µM | ≤ 100 µM | ≤ 0.1 µM |  | ≤ 0.1 µM | 
Cc1cccc(C)c1-n1nnnc1[C@H](c1ccc(Cl)c(Cl)c1)N1CCN(C/C=C/c2ccccc2)CC1 (racemic) [Compound 60, 1-{(3,4-dichlorophenyl)-[1-(2,6-dimethylphenyl)-1H-tetrazol-5-yl]methyl}-4-(3-phenylallyl)piperazine] | ≤ 100 µM |  | ≤ 100 µM | ≤ 100 µM | ≤ 100 µM | ≤ 0.1 µM |  |  | 
